From patent publication US9096615B2, “Bridged bicyclic amino thiazine dioxide compounds as inhibitors of beta-secretase and methods of use thereof” (AMGEN INC., priority 2013, dated 2015)
Read-outs that look alike come from different tables or passages of the source.

Experiments:
BACE1 = BACE1 (Homo sapiens, UniProt P56817); test: In vitro enzymatic BACE FRET assay; format: biochemical
In short: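 Fluorescence (excitation 488 nm, […]) from cleavage of quenched peptide substrate (50 nM), reaction run 1 h after 1 h enzyme–inhibitor pre-incubation, then neutralised with Tris. Conditions: 0.2 nM enzyme, pH 4.2 acetate 0.05 M, 10% DMSO final, 100 uM genapol.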

Cathepsin D (Cat D) = target: T1, Cathepsin D (Cat D) (Homo sapiens, UniProt P07339); test: In vitro enzymatic Cathepsin D (Cat D) FRET assay; format: biochemical; conditions: read-out: CatD IC50
T1 construct: made in house; host or cells: CHO cells
In short: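 Fluorescence (500 nm excitation, 580 nm emission) was measured after Tris quench of a 1 h cleavage of 20 nM quenched peptide substrate. Before that, 9 nM CHO-expressed human Cat D sat with compound for 1 h at pH 3.5 (0.05 M citrate, 5 mM CHAPS, 10% DMSO final).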

Abeta 40 = test: In vivo inhibition of beta-secretase: percent Abeta 40 reduction in CSF and brain; parameters: species or system rat; conditions: 10 mpk, after 4 hrs
Text: In Vivo Inhibition of Beta-Secretase
Several animal models, including mouse, rat, dog, and monkey, may be used to screen for inhibition of beta-secretase activity in vivo following administration of a test compound sample. Animals used in this invention can be wild type, transgenic, or gene knockout animals. For example, the Tg2576 mouse model, prepared and conducted as described in Hsiao et al., 1996, Science 274, 99-102, and other non-transgenic or gene knockout animals are useful to analyze in vivo inhibition of Amyloid beta peptide (Abeta) production in the presence of inhibitory test compounds. Generally, 2 to 18 month old Tg2576 mice, gene knockout mice or non-transgenic animals are administered test compounds formulated in vehicles, such as cyclodextran, phosphate buffers, hydroxypropyl methylcellulose or other suitable vehicles. One to twenty-four hours following the administration of compound, animals are sacrificed, and brains as well as cerebrospinal fluid (CSF) and plasma are removed for analysis of A-beta levels and drug or test compound concentrations (Dovey et al., 2001, Journal of Neurochemistry, 76, 173-181) Beginning at time 0, animals are administered by oral gavage, or other means of delivery such as intravenous injection, an inhibitory test compound of up to 100 mg/kg in a standard, conventional formulation, such as 2% hydroxypropyl methylcellulose, 1% Tween80. A separate group of animals receive 2% hydroxypropyl methylcellulose, 1% Tween80 alone, containing no test compound, and serve as a vehicle-control group. At the end of the test period, animals are sacrificed and brain tissues, plasma or cerebrospinal fluid are collected. Brains are either homogenized in 10 volumes (w/v) of 0.2% diethylamine (DEA) in 50 mM NaCl (Best et al., 2005, Journal of Pharmacology and Experimental Therapeutics, 313, 902-908), or in 10 volumes of 0.5% TritonX-100 in Tris-buffered saline (pH at about 7.6). Homogenates are centrifuged at 355,000 g, 4° C. for 30 minutes. CSF or brain supernatants are then analyzed for the presence of A-beta peptide by specific sandwich ELISA assays based on ECL (Electrochemiluminescence) technology. For example, rat Abeta40 is measured using biotinylated-4G8 (Signet) as a capture antibody and Fab40 (an in-house antibody specific to the C-terminal of Abeta40) as a detection antibody. For example, 4 hours after administration of 30 mg/kg oral dose of the test compound in 2% hydroxypropyl methylcellulose, 1% Tween80 (pH2.2) to 200 g male Sprague Dawley rats, amyloid beta peptide levels are measured for reduction by X % and Y % in cerebrospinal fluid and brain, respectively, when compared to the levels measured in the vehicle-treated or control […].
Actual vehicles used: Oral: 2% HPMC, 1% Tween80, pH 2.2
• IV: 5% EtOH, 45% Propylene glycol in 5% Dextrose
The compounds of the invention may be shown to reduce the formation and/or deposition of amyloid beta peptide in the cerebrospinal fluid (CSF) as well as in the brain of a mouse or rat at either 3 mpk, 10 mpk or 30 mpk (mpk=mg compound per kg weight of the animal) dosing concentrations after 4 hrs.

[1] = system: Aβ40 in conditioned medium of cells stably expressing Amyloid Precursor Protein (APP); test: In vitro BACE cell-based assay (HEK cell assay, Aβ40 sandwich ELISA); conditions: Homo sapiens, HEK293
In short: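 IC50 was derived from percent-of-control Aβ40 against concentration, with Aβ40 quantified by time-resolved fluorescence ELISA (pAb40/6E10-biotin, 4 °C incubations). Supernatants were sampled after 24 h of compound exposure (10 points, starting 100 or 10 μM, 0.1% DMSO) of cells stably expressing APP.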

[2] = average IC50, read-out: BACE1 Enzyme assay IC50
[3] = Abeta 40, rat CSF, read-out: % reduction of rat CSF levels at 10 pmk
[4] = Abeta 40, rat brain, read-out: % reduction of rat brain levels at 10 mpk
[5] = average IC50, read-out: BACE1 cell assay IC50
[6] = read-out: BACE1 FRET assay IC50
[7] = Aβ40, 24 h incubation, read-out: HEK cell assay IC50

T1 sequence (P07339 65-412, species assumed): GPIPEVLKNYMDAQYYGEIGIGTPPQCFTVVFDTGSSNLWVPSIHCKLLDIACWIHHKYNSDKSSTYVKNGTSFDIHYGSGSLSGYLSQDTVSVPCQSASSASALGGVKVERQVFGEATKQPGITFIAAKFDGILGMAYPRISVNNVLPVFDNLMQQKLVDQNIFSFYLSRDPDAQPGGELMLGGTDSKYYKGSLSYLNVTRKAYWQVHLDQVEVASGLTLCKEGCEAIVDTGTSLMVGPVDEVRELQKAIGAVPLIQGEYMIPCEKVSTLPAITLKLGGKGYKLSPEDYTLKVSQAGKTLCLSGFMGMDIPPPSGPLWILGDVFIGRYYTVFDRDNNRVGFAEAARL
Chain of BACE1 (P56817 46-501, species assumed): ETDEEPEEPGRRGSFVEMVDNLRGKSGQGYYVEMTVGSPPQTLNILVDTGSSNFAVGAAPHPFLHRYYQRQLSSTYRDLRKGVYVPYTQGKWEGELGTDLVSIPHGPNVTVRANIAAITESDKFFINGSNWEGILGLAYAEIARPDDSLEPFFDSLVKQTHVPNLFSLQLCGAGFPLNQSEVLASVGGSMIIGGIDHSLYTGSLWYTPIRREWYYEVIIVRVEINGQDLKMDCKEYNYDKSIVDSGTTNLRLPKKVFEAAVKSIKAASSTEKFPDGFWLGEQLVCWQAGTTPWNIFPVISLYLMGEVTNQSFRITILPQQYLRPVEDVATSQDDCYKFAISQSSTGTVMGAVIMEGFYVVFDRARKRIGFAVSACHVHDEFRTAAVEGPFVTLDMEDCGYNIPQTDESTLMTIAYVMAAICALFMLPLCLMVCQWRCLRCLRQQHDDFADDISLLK

SMILES | IC50 (BACE1; [2]) | IC50 (Cathepsin D (Cat D); average IC50, first procedure) | inhibition in vivo at 10 mg/kg (Abeta 40; [3]) | inhibition in vivo at 10 mg/kg (Abeta 40; [4]) | IC50 [1, 5] | IC50 (BACE1; [6]) | IC50 (Cathepsin D (Cat D)) | IC50 [1, 7]
C[C@]1(c2cc(Nc3ncnc4cc(C(F)(F)F)cnc34)ccc2F)N=C(N)[C@@]2(CF)CC[C@@H]1S2(=O)=O [Example 107, N-(3-((1S,2R,5R)-4-amino-5-(fluoromethyl)-2-methyl-8,8-dioxido-8-thia-3-azabicyclo[3.2.1]oct-3-en-2-yl)-4-fluorophenyl)-7-(trifluoromethyl)pyrido[3,2-d]pyrimidin-4-amine] | 0.01 µM | 185 µM | 53% | 43% | 0.018 µM |  |  | 
Cc1cc(Cl)cnc1C(=O)Nc1ccc(F)c([C@@]2(C)N=C(N)[C@@]3(C)CC[C@@H]2S3(=O)=O)c1 [Example 22, N-(3-((1S,2R,5R)-4-Amino-2,5-dimethyl-8,8-dioxido-8-thia-3-azabicyclo[3.2.1]oct-3-en-2-yl)-4-fluorophenyl)-5-chloro-3-methylpicolinamide] |  |  | 76% | 66% |  | 0.002 µM | 1740 µM | 0.002 µM
C[C@]1(c2cc(NC(=O)c3ccc(C(F)(F)F)cc3F)ccc2F)N=C(N)[C@@]2(C)CC[C@@H]1S2(=O)=O [Example 121, N-(3-((1S,2R,5R)-4-amino-2,5-dimethyl-8,8-dioxido-8-thia-3-azabicyclo[3.2.1]oct-3-en-2-yl)-4-fluorophenyl)-2-fluoro-4-(trifluoromethyl)benzamide] | 0.41 µM | > 400 µM |  |  | 0.15 µM |  |  | 
Cc1cc(Cl)cnc1C(=O)Nc1ccc(F)c([C@@]2(C)N=C(N)[C@]3(C)CCC[C@H]2S3(=O)=O)c1 [Example 4, N-(3-((1R,2R,5S)-4-Amino-2,5-dimethyl-9,9-dioxido-9-thia-3-azabicyclo[3.3.1]non-3-en-2-yl)-4-fluorophenyl)-5-chloro-3-methylpicolinamide] |  |  |  |  |  | 0.007 µM | 270 µM | 0.02 µM
Cc1cc(Cl)cnc1C(=O)Nc1ccc(F)c([C@@]2(C)N=C(N)[C@@]3(C)CC[C@]2(C)S3(=O)=O)c1 [Example 31, N-(3-((1S,2R,5R)-4-amino-1,2,5-trimethyl-8,8-dioxido-8-thia-3-azabicyclo[3.2.1]oct-3-en-2-yl)-4-fluorophenyl)-5-chloro-3-methylpicolinamide] |  |  |  |  |  | 0.004 µM | 56.9 µM | 0.012 µM
C[C@]1(c2cc(Nc3ncc(F)c4cc(OCC5CC5)cnc34)ccc2F)N=C(N)[C@@]2(C)CC[C@@H]1S2(=O)=O [Example 137, N-(3-((1S,2R,5R)-4-amino-2,5-dimethyl-8,8-dioxido-8-thia-3-azabicyclo[3.2.1]oct-3-en-2-yl)-4-fluorophenyl)-3-(cyclopropylmethoxy)-5-fluoro-1,7-naphthyridin-8-amine] | 0.003 µM | > 400 µM |  |  | 0.0654 µM |  |  | 
COc1cnc(C(=O)Nc2ccc(F)c([C@@]3(CF)N=C(N)[C@]4(C)CC[C@H]3S4(=O)=O)c2)cn1 [Example 75, N-(3-((1R,2S,5S)-4-amino-2-(fluoromethyl)-5-methyl-8,8-dioxido-8-thia-3-azabicyclo[3.2.1]oct-3-en-2-yl)-4-fluorophenyl)-5-methoxy-2-pyrazinecarboxamide] | 0.097 µM | > 400 µM |  |  | 0.095 µM |  |  | 
Cc1cc(OC(F)F)cnc1C(=O)Nc1ccc(F)c([C@@]2(C)N=C(N)[C@@]3(C)CCC[C@@H]2S3(=O)=O)c1 [Example 5, N-(3-((1S,2R,5R)-4-Amino-2,5-dimethyl-9,9-dioxido-9-thia-3-azabicyclo[3.3.1]non-3-en-2-yl)-4-fluorophenyl)-5-(difluoromethoxy)-3-methylpicolinamide] |  |  |  |  |  | 0.003 µM | 105 µM | 0.004 µM
C[C@]12CC[C@H]([C@@](C)(c3cc(Nc4ncnc5cc(Cl)cnc45)ccc3F)N=C1N)S2(=O)=O [Example 131, N-(3-((1R,2R,5S)-4-amino-2,5-dimethyl-8,8-dioxido-8-thia-3-azabicyclo[3.2.1]oct-3-en-2-yl)-4-fluorophenyl)-7-chloropyrido[3,2-d]pyrimidin-4-amine] | 0.029 µM | 482 µM |  |  | 0.018 µM |  |  | 
COc1cnc2c(Nc3ccc(F)c([C@@]4(C)N=C(N)[C@]5(C)CC[C@H]4S5(=O)=O)c3)nccc2n1 [Example 81, N-(3-((1R,2R,5S)-4-amino-2,5-dimethyl-8,8-dioxido-8-thia-3-azabicyclo[3.2.1]oct-3-en-2-yl)-4-fluorophenyl)-2-methoxypyrido[3,4-b]pyrazin-5-amine] | 0.225 µM | > 348 µM |  |  | 0.062 µM |  |  | 
Cc1cc(OC(F)F)cnc1C(=O)Nc1ccc(F)c([C@@]2(C)N=C(N)[C@@]3(C)CCC[C@]2(F)S3(=O)=O)c1 [Example 9, N-(3-((1S,2R,5R)-4-Amino-1-fluoro-2,5-dimethyl-9,9-dioxido-9-thia-3-azabicyclo[3.3.1]non-3-en-2-yl)-4-fluorophenyl)-5-(difluoromethoxy)-3-methylpicolinamide] |  |  |  |  |  | 0.007 µM | 19 µM | 0.149 µM
COc1cnc(C(=O)Nc2ccc(F)c([C@@]3(CF)N=C(N)[C@@]4(C)CC[C@@H]3S4(=O)=O)c2)cn1 (single isomer, unassigned) [Example 120] | 0.049 µM | > 400 µM |  |  | 0.088 µM |  |  | 
Cc1cc(Cl)cnc1C(=O)Nc1ccc(F)c([C@@]2(C)N=C(N)[C@@H]3CC[C@H]2S3(=O)=O)c1 [Example 21, N-(3-((1R,2R,5S)-4-Amino-2-methyl-8,8-dioxido-8-thia-3-azabicyclo[3.2.1]oct-3-en-2-yl)-4-fluorophenyl)-5-chloro-3-methylpicolinamide] |  |  |  |  |  | 0.016 µM | 1640 µM | 0.081 µM
C[C@]1(c2cc(Nc3nccc4[nH]c(=O)cnc34)ccc2F)N=C(N)[C@@]2(CF)CC[C@@H]1S2(=O)=O [Example 148, 5-((3-((1S,2R,5R)-4-amino-5-(fluoromethyl)-2-methyl-8,8-dioxido-8-thia-3-azabicyclo[3.2.1]oct-3-en-2-yl)-4-fluorophenyl)amino)pyrido[3,4-b]pyrazin-2(1H)-one] | 0.016 µM | 217 µM |  |  | 0.019 µM |  |  | 
Cc1cc(Cl)cnc1C(=O)Nc1ccc(F)c([C@@]2(C)N=C(N)[C@@]3(C)CCC[C@]2(F)S3(=O)=O)c1 [Example 7, N-(3-((1S,2R,5R)-4-Amino-1-fluoro-2,5-dimethyl-9,9-dioxido-9-thia-3-azabicyclo[3.3.1]non-3-en-2-yl)-4-fluorophenyl)-5-chloro-3-methylpicolinamide] |  |  |  |  |  | 0.007 µM | 22.6 µM | 0.22 µM
CC#CCOc1cnc(C(=O)Nc2ccc(F)c([C@@]3(C)N=C(N)[C@]4(CF)CC[C@H]3S4(=O)=O)c2)cn1 [Example 95, N-(3-((1R,2R,5S)-4-amino-5-(fluoromethyl)-2-methyl-8,8-dioxido-8-thia-3-azabicyclo[3.2.1]oct-3-en-2-yl)-4-fluorophenyl)-5-(2-butyn-1-yloxy)-2-pyrazinecarboxamide] | 0.007 µM | 603 µM |  |  | 0.003 µM |  |  | 
